According to patent publication US9265761B2, “Compositions and methods for treating purpura” (ALLERGAN, INC., priority 2007, dated 2016):
Structures can show the parent of a compound that is named as a salt. Where two headings read alike, the source gives them in different places.

What was measured:
[1] = test system: laser-induced purpura; assay: Prevention of laser-induced purpura, topical pretreatment before laser (Example 2); type: in vivo, human; conditions: topical application 3 hours and 1 hour prior to laser; oxymetazoline HCl 0.05%, naphazoline HCl 0.03%, tetrahydrozoline HCl 0.05%, phenylephrine HCl 1.0%, brimonidine tartrate 0.2%
Excerpt: In order to evaluate the effect of topically applied α1 and α2 adrenergic agonists on the prevention of laser-induced purpura on normal non-actinically damaged skin, seven sites on the trunk of a volunteer were marked and treated with the topical application of a commercially available α1 and/or α2 agonist preparation. Six (of the seven) marked sites were pretreated with the topical application of at least one of the testing preparations. The preparations were applied to the skin and gently rubbed on the skin over and immediately surrounding the laser treatment sites 3 hours prior to and 1 hour prior to the delivery of the laser energy. The applied solution was allowed to air-dry without any dressing. […] After the delivery of the laser energy, each spot received only topical petrolatum jelly 3-4 times/day and no additional application of any testing compound. The sites were followed clinically and photographically 1, 3, 4, 6, 11 and 13 days after the creation of the purpura. The evaluated compounds were:
Site 8: Oxymetazoline hydrochloride (0.05%): A solution of oxymetazoline hydrochloride 0.05% (Afrin® Original 12 Hour Nasal Spray (Schering-Plough Healthcare Products) containing: oxymetazoline hydrochloride 0.05%, benzalkonium chloride solution, edetate disodium, polyethylene glycol, povidone, propylene glycol, purified water, sodium phosphate dibasic, sodium phosphate monobasic.
Site 9: Naphazoline hydrochloride (0.03%): A solution of naphazoline hydrochloride 0.03% (Clear Eyes® Maximum Redness Relief (Prestige Brands Inc.) containing: naphazoline hydrochloride 0.03%, glycerin 0.5%, benzalkonium chloride, boric acid, edetate disodium, purified water, sodium borate).
Site 10: Tetrahydrozoline hydrochloride (0.05%): A solution of tetrahydrozoline hydrochloride 0.05% (Visine® Original (Pfizer Consumer Healthcare) containing: tetrahydrozoline hydrochloride 0.05%, benzalkonium chloride, boric acid, edetate disodium, purified water, sodium borate, sodium chloride).
Site 11: Phenylephrine hydrochloride (1.0%): A solution of phenylephrine hydrochloride 1.0% (Neo-Synephrine® Extra Strength Spray (Bayer HealthCare) containing: phenylephrine hydrochloride 1.0%, anhydrous citric acid, benzalkonium chloride, sodium chloride, sodium citrate, water).
Site 14: No treatment after laser light delivered. (“Control”)

[2] = test system: purpura; assay: Resolution of pulsed-dye laser induced purpura, topical application after laser (Example 1); type: in vivo, human; conditions: commercial solutions applied topically every 6-8 hours after pulsed-dye laser (585 nm), trunk of a volunteer, followed 1-13 days; oxymetazoline HCl 0.05%, naphazoline HCl 0.03%, tetrahydrozoline HCl 0.05%, phenylephrine HCl 1.0%, brimonidine tartrate 0.2%
Excerpt: The applied solution was allowed to air-dry without any dressing. […] The evaluated compounds were:
The sites were followed clinically and photographically 1, 3, 4, 6, 11 and 13 days after the creation of the purpura.

[3] = test system: solar purpura; assay: Treatment and prevention of solar purpura with topical α1 adrenergic agonist (Example 4); type: in vivo, human
Protocol: Subject 1 is a person with a long-standing history of solar purpura on their forearms. The test area comprised the left dorsal (extensor) forearm from the wrist to the elbow. Pretreatment photos were taken and baseline measurements of the solar purpura on the left extensor forearm from the wrist to the elbow were measured. […] The total area of purpura was 8.94 cm^2. (SEE TABLE 2)
(§1) A solution of oxymetazoline hydrochloride 0.05% (Afrin® Original 12 Hour Nasal Spray (Schering-Plough Healthcare Products) containing: oxymetazoline hydrochloride 0.05%, benzalkonium chloride solution, edetate disodium, polyethylene glycol, povidone, propylene glycol, purified water, sodium phosphate dibasic, sodium phosphate monobasic (0.005%)) was applied by the patient to the left dorsal forearm twice daily (morning and evening). […] The sites were followed clinically and photographically.
Subject 2 is a person with a long history of cosmetically disturbing solar purpura on their forearms who wanted to improve the appearance solar (decrease the purpura). The test area comprised the left dorsal (extensor) forearm from the wrist to the elbow. Pretreatment photos were taken and baseline measurements of the solar purpura on the left extensor forearm from the wrist to the elbow were measured. […] The total area of purpura was 1.72 cm^2. (SEE TABLE 3)
as §1, with “once” for “twice”, “(morning).” for “(morning and evening).”

[4] = test system: solar purpura; conditions: for Effect: decrease of purpura area compared to mean baseline / Purpura Area / Effect: increase of purpura area compared to mean baseline: 0.2% solution twice daily; for Effect: decrease of purpura area compared to mean baseline / Purpura Area: right dorsal forearm; for Purpura Area: mean baseline 3.67 cm^2; for Effect: increase of purpura area compared to mean baseline: day 24, increase in purpura noted after gardening
Excerpt: The use of a topically applied α2 adrenergic agonist for the treatment and prevention of solar purpura (“actinic purpura”, “Bateman's purpura”): In order to evaluate the effect of topically applied α1 and α2 adrenergic agonists on the prevention and treatment of solar purpura, a volunteer with a diagnosis of solar purpura of the forearms treated with a topically applied α2 adrenergic agonist containing solution. The test area comprised the right extensor forearm from the wrist to the elbow. Photos were taken and baseline scores for the solar purpura on their right dorsal forearm from the wrist to the elbow were measured 6 times over a 91 day period before initiating treatment. Two measurements were taken to approximate the area of each purpuric patch.
The solution was applied with a cotton ball to the skin of the entire right extensor forearm from the wrist to the elbow. The sites were followed clinically and photographically.

[5] = Subject 1, 0.05% solution twice daily
[6] = Subject 2, 0.05% solution once daily

## c1ccc2c(CC3=NCCN3)cccc2c1 [naphazoline hydrochloride]
[1]
  how pronounced the effect of pretreatment was (smaller purpuric macule/patch, shortened resolution): more pronounced
[2]
  resolution of the purpura compared with non-treated control site: most pronounced

## Cc1cc(C(C)(C)C)c(O)c(C)c1CC1=NCCN1 [oxymetazoline hydrochloride]
[3]; Subject 1, day 17, 0.05% solution twice daily, left extensor forearm, baseline 8.94 cm^2
  Purpura Area: 9.95 cm^2
[3]; Subject 1, day 17, 0.05% solution twice daily, hydrochloride
  Effect: increase of purpura area compared to baseline: ↑ 11% from Baseline
[3]; Subject 1, day 17, 0.05% solution twice daily, listed as oxymetazoline, hydrochloride
  Effect: increase of purpura area compared to baseline: 11%
[3]; Subject 1, day 29, 0.05% solution twice daily, baseline 8.94 cm^2
  Purpura Area: 5.73 cm^2
[3]; Subject 1, day 29, 0.05% solution twice daily, hydrochloride
  Effect: decrease of purpura area compared to baseline: ↓ 36% from Baseline
[3]; Subject 1, day 29, 0.05% solution twice daily, listed as oxymetazoline, hydrochloride
  Effect: decrease of purpura area compared to baseline: 36%
[3]; Subject 1, day 44, 0.05% solution twice daily, baseline 8.94 cm^2
  Purpura Area: 5.6 cm^2
[3]; Subject 1, day 44, 0.05% solution twice daily, hydrochloride
  Effect: decrease of purpura area compared to baseline: ↓ 37% from Baseline
[3]; Subject 1, day 44, 0.05% solution twice daily, listed as oxymetazoline, hydrochloride
  Effect: decrease of purpura area compared to baseline: 37%
[3]; Subject 1, day 81, 0.05% solution twice daily, baseline 8.94 cm^2
  Purpura Area: 1.44 cm^2
[3]; Subject 1, day 81, 0.05% solution twice daily, hydrochloride
  Effect: decrease of purpura area compared to baseline: ↓ 84% from Baseline
[3]; Subject 1, day 81, 0.05% solution twice daily, listed as oxymetazoline, hydrochloride
  Effect: decrease of purpura area compared to baseline: 84%
[3]; Subject 1, day 91 (medication discontinued day 91), 0.05% solution twice daily, baseline 8.94 cm^2
  Purpura Area: 0.42 cm^2
[3]; Subject 1, day 91, 0.05% solution twice daily, hydrochloride
  Effect: decrease of purpura area compared to baseline: ↓ 95% from Baseline
[3]; Subject 1, day 91, 0.05% solution twice daily, listed as oxymetazoline, hydrochloride
  Effect: decrease of purpura area compared to baseline: 95%
[3]; Subject 1, day 98, 7 days off medication, day 91 value 0.42 cm^2
  Purpura Area: 1.96 cm^2
[3]; Subject 1, day 98, 7 days off medication, hydrochloride
  Effect: increase of purpura area (table: from Baseline; text: from day 91 measurement): ↑ 366% from Baseline
[3]; Subject 1, day 98, 7 days off medication, listed as oxymetazoline, hydrochloride
  Effect: increase of purpura area (table: from Baseline; text: from day 91 measurement): 366%
[3]; Subject 1, day 112, 14 days off medication, day 91 value 0.42 cm^2
  Purpura Area: 0.46 cm^2
[3]; Subject 1, day 112, 14 days off medication, hydrochloride
  Effect: increase of purpura area (table: from Baseline; text: from day 91 measurement): ↑ 10% from Baseline
[3]; Subject 1, day 112, 14 days off medication, listed as oxymetazoline, hydrochloride
  Effect: increase of purpura area (table: from Baseline; text: from day 91 measurement): 10%
[3]; Subject 1, day 122, 24 days off medication, day 91 value 0.42 cm^2
  Purpura Area: 2.22 cm^2
[3]; Subject 1, day 122, 24 days off medication, hydrochloride
  Effect: increase of purpura area (table: from Baseline; text: from day 91 measurement): ↑ 428% from Baseline
[3]; Subject 1, day 122, 24 days off medication, listed as oxymetazoline, hydrochloride
  Effect: increase of purpura area (table: from Baseline; text: from day 91 measurement): 428%
[3]; [5]
  patient's impression: new purpuric macules/patches while using the medication: fewer new purpuric macules/patches
  patient's impression: resolution of purpura that occurred: resolve more quickly
[3]; Subject 1, 0.05% solution twice daily, 91 days
  side effects, local or systemic, during the treatment: no side effects, either local or systemic
[3]; Subject 2, day 7, 0.05% solution once daily, left extensor forearm, baseline 1.72 cm^2, hydrochloride
  Purpura Area: 0.00 cm^2
[3]; Subject 2, day 7, 0.05% solution once daily, left extensor forearm, baseline 1.72 cm^2, listed as oxymetazoline, hydrochloride
  Purpura Area: 0 cm^2
[3]; Subject 2, day 7, 0.05% solution once daily, hydrochloride
  Effect: decrease of purpura area compared to baseline: ↓ 100% from Baseline
[3]; Subject 2, day 7, 0.05% solution once daily, listed as oxymetazoline, hydrochloride
  Effect: decrease of purpura area compared to baseline: 100%
[3]; Subject 2, day 31, 0.05% solution once daily, baseline 1.72 cm^2, hydrochloride
  Purpura Area: 0.00 cm^2
[3]; Subject 2, day 31, 0.05% solution once daily, baseline 1.72 cm^2, listed as oxymetazoline, hydrochloride
  Purpura Area: 0 cm^2
[3]; Subject 2, day 31, 0.05% solution once daily, hydrochloride
  Effect: decrease of purpura area compared to baseline: ↓ 100% from Baseline
[3]; Subject 2, day 31, 0.05% solution once daily, listed as oxymetazoline, hydrochloride
  Effect: decrease of purpura area compared to baseline: 100%
[3]; Subject 2, day 36, 0.05% solution once daily, baseline 1.72 cm^2
  Purpura Area: 0.36 cm^2
[3]; [6]
  patient's impression: new purpuric patches while using the medication: fewer new purpuric patches
  patient's impression: resolution of purpura that occurred: resolve more quickly
  side effects, local or systemic, during the treatment: no side effects, either local or systemic
[3]; topically applied once or twice daily, two subjects
  overall outcome of the trials on solar purpura: dramatically reduces the size and appearance of purpuric macules/patches and may eliminate them
[1]
  how pronounced the effect of pretreatment was (smaller purpuric macule/patch, shortened resolution): more pronounced
[2]
  resolution of the purpura compared with non-treated control site: most pronounced

## CNC[C@H](O)c1cccc(O)c1 [phenylephrine hydrochloride]
[1]
  how pronounced the effect of pretreatment was (smaller purpuric macule/patch, shortened resolution): more pronounced
[2]
  resolution of the purpura compared with non-treated control site: most pronounced

## c1ccc2c(c1)CCCC2C1=NCCN1 (centres unmarked) [tetrahydrozoline hydrochloride]
[1]
  how pronounced the effect of pretreatment was (smaller purpuric macule/patch, shortened resolution): more pronounced

## brimonidine tartrate
[1]
  how pronounced the effect of pretreatment was (smaller purpuric macule/patch, shortened resolution): less pronounced
[4]; 0.2% topically applied twice daily
  overall outcome of the trial on solar purpura: reduces the size and appearance of purpuric macules/patches
[4]; day 7
  Effect: decrease of purpura area compared to mean baseline: ↓ 60% from Baseline
[4]; day 7, person
  Purpura Area: 1.48 cm^2
[4]; day 7, listed as brimonidine
  Effect: decrease of purpura area compared to mean baseline: 60%
[4]; day 14
  Effect: decrease of purpura area compared to mean baseline: ↓ 90% from Baseline
  Purpura Area: 0.35 cm^2
[4]; day 14, listed as brimonidine
  Effect: decrease of purpura area compared to mean baseline: 90%
[4]; day 24, after gardening
  Purpura Area: 5.72 cm^2
[4]
  Effect: increase of purpura area compared to mean baseline: ↑ 34% from Baseline
[4]; listed as brimonidine
  Effect: increase of purpura area compared to mean baseline: 34%
[4]; day 36
  Purpura Area: 2.52 cm^2
